From article PMC7181660, “A novel specific PERK activator reduces toxicity and extends survival in Huntington's disease models” (Scientific Reports, 2020)

Test system: STHdh^Q111/111 cells
Test: Apoptosis of STHdh^Q111/111 cells with the NRF2 inhibitor ML385
Type: cell-based, murine
Experimental: STHdh^Q111/111 cells (used before[13]) or PERK+/+ or PERK−/− MEFs (kindly provided by David Ron, Univ. Cambridge) were incubated with Tun (10 μg/ml) for 48 h, which results in ER stress-induced cell death. Cells under the same conditions were incubated for the same times, together with Tun, with increasing concentrations of the different PERK modulators (0–120 μM) and the percent of apoptotic cells was measured by FACS cell cycle progression using propidium iodide (PI), considering the fraction beneath G0/G1. The relative apoptosis rate was calculated to be able to compare between compounds and experiments, where for each concentration curve the percent of apoptotic cells was considered 100 at concentration 0 of the PERK modulator, with only Tun. The graphs show the average relative apoptosis rate of at least 3 independent experiments for each compound.
Suppl. Fig. S5. NRF2 activation but not involvement in cell protection by MK-28. A)
Scheme of NRF2 activation by PERK. B) qPCR of HMOX1, a downstream target of NR F2.
Medians +- interquartile range of 3 independent experiments . P values of STHdhQ7/7 MK 5µM […]
presence of Tun and the indicated concentrations of MK-28, plus increasing concentrations of the NRF2 inhibitor ML385. Average of 3 independent experiments +-SD. D) Apoptosis of STHdhQ111/111 cells treated only with increasing concentrations of ML385. […]

Cc1ccccc1C(=O)N1CCc2cc(-c3nc(NC(=O)Cc4ccc5c(c4)OCO5)sc3C)ccc21 [ML385]
reversal of the cytoprotective effect of MK-28 (Tun + MK-28 + increasing ML385): did not reverse to any significant extent | toxicity (apoptosis) of ML385 (increasing concentrations): caused some toxicity
